The values that follow come from EP0450936A1, “Monoclonal antibody to avermectins” (MERCK & CO. INC., priority 1990, dated 1991).

The test system of data set [1] is monoclonal antibody 3A6-1 Mab. Put plainly: competitive inhibition liquid phase RIA (monoclonal antibody specificity). It is filed as binding, mouse. The following applies: 50 ng inhibitor, 500 pg 3H-Avm B1a; for % ^3H-Tritium bound: antibody amount binding about 50% of label (Mab alone: 42). As to the method:
Specificity is determined by a competitive inhibition liquid phase RIA. The specificity is determined by contacting a known amount of labelled antigen (³H-Avm B1a) with constant amounts of other avermectins or ivermectin and then contacting this mixture with a constant amount of antibody specific for the labelled antigen. The concentration of antibody is an amount that is sufficient to bind about 50% of the labelled antigen employed in the assay.
Specificity is determined by a competitive inhibition liquid phase RIA. The specificity is determined by contacting a known amount of labelled antigen (³H-Avm B1a), 500 pg with constant amounts of other avermectins or ivermectin and then contacting this mixture with a constant amount of antibody specific for the labelled antigen. The concentration of antibody is an amount that is sufficient to bind about 50% of the labelled antigen employed in the assay.

A short description of data set [2]: detection of avermectin in mouse serum by competitive liquid phase RIA after intraperitoneal injection. The class given is in vivo, BALB/c mice. Conditions: for Concentration per tube: serum at 1:10 dilution. An excerpt:
Monoclonal antibody specifically reactive with a common epitope or common epitopes contained within the compounds of the avermectin family and derivatives thereof are used serologically to identify and quantitate avermectins, including ivermectin, in animal body fluids and cell-free extracts. Body fluids include, but are not limited to, blood, serum, plasma, milk, urine, cerebrospinal fluid and the like. Cell-free extracts as used herein are defined as the fluids derived from disrupted cells. The avermectins can be identified and the concentration determined by a variety of immunoassays or serological assays which include, but are not limited to: immunoradiometric assays, employing labelled antibodies, Miles and Hales, Nature 219: 186 […] or a sandwich variant according to Addison and Hales, Hormone. Meta. Res. 3: 59 (1971); enzyme immunoassays, employing competitive assays with antigen-enzyme conjugates according to the method of Van Weeman and Schours, F.E.B.S. Lett. 15: 232 (1971) or enzyme-labelled antibody assays according to the procedure of Envall and Perlman, Immunochem. 8: 871 (1971) or a variant of the enzyme-labelled antibody assay which employs detection by a second antibody according to the process of Hammarstrom et al., Proc. Natl. Acad. Sci. USA 72: 1528 (1975) or non-competitive sandwich (ELISA) methods, see Nakamura et al., in Handbood of Experimental Immunology, Vol. 1, Immunochemistry, D. M. Weir, ed. 4th Edition (1986), Blackwell Scientific Publications, Oxford, pp. 27.1-27.20; or any other assay which will determine the concentration or presence of avermectin. The preferred assay is a competitive inhibition liquid phase radioimmuno assay (RIA). The avermectin concentration in animal body fluids is determined by diluting the fluid in an appropriate assay buffer. An appropriate assay buffer may include, but is not limited to, buffered saline, phosphate buffer, phosphate buffered saline, Dulbecco's phosphate buffered saline, Dulbecco's calcium-and-magnesium-free buffered saline and Tris buffer containing about 0.1 % CHAPSO with Tris-CHAPSO being preferred. The labelled antigen (³H-Avm) is diluted to a concentration of about 200 pg to about 700 pg, with about 500 pg being preferred, and contacted with an anti-avermectin monoclonal antibody at a concentration that will bind about 25% to about 75% of the labelled antigen, with about 50% being preferred. To the labelled antigen-antibody mixture is added an appropriate concentration or dilution of the unknown or sample containing avermectin or the standard containing a known amount of avermectin. The reactants are incubated at about 4° C to about 30° C, with about 25° C being preferred, for about 30 minutes to about 4 h, with about 2.5 h being preferred. All dilutions are made in the assay buffer and all determinations are made in duplicate. Non-antibody-bound radioactive avermectin is removed from the reaction mixture by chromatographic, precipitation, immunoprecipitation or adsorption techniques with adsorption of the unbound antigen onto dextran-coated activated charcoal being preferred. The dextran-coated charcoal is prepared by suspending activated charcoal, USP, at about 3% (w/v) in about 10 mM phosphate buffer, pH about 7.5, containing about 0.25% (w/v) dextran, about 60,000 to about 90,000 average mol. wt., with about 70,000 average mol. wt. being preferred. The dextran-coated activated charcoal is washed and resuspended in assay buffer and stored at a concentration of about 3%. About 1 ml of the dextran-coated activated charcoal suspension (dilution predetermined) is added to each sample and the samples are incubated for about 10 min at about 4° C. The charcoal is pelleted by centrifugation at about 3500 rpm for about 15 min. The supernatant quid is collected and the radioactivity counted in a liquid scintillation counter. […]

What is called % Inhibition is the relative decrease from the control value, in per cent. Low values mean a weak effect, high ones a strong effect. With `CC[C@H](C)[C@H]1O[C@@]2(C[C@@H]3C[C@@H](C/C=C(\C)[C@@H](O[C@H]4C[C@H](OC)[C@@H](O[C@H]5C[C@H](OC)[C@@H](O)[C@H](C)O5)[C@H](C)O4)[C@@H](C)/C=C/C=C4\CO[C@@H]5[C@H](O)C(C)=C[C@@H](C(=O)O3)[C@]45O)O2)C[C@H](O)[C@@H]1C` [B2a, avermectin B2a], in data set [1], the “% Inhibition” value came out at 58% and the “% ^3H-Tritium bound” value is given as 18%.
On to `CCC(C)[C@H]1O[C@]2(C=C[C@@H]1C)C[C@@H]1C[C@@H](C/C=C(\C)[C@@H](O[C@H]3C[C@H](OC)[C@@H](O[C@H]4C[C@H](OC)[C@@H](O)[C@H](C)O4)[C@H](C)O3)[C@@H](C)/C=C/C=C3\CO[C@@H]4[C@H](O)C(C)=C[C@@H](C(=O)O1)[C@]34O)O2` (stereo partly drawn) [B1a, avermectin B1a], for which the Concentration per tube is 2.4 ng in data set [2] (15 min after 10 mg per Kg IP in sesame oil), 13 ng in data set [2] (30 min after 10 mg per Kg IP in sesame oil) and 42 ng in data set [2] (60 min after 10 mg per Kg IP in sesame oil). This compound also had a concentration at 0.25 h in data set [2] (mouse, serum, 10 mg/kg, 15 min after 10 mg per Kg IP in sesame oil, corrected for volume (50 µl) and dilution (1:10)) of 480 ng/mL. The compound further gave a concentration at 0.5 h in data set [2] (mouse, serum, 10 mg/kg, 30 min after 10 mg per Kg IP in sesame oil, corrected for volume (50 µl) and dilution (1:10)) of 2600 ng/mL. Also, the concentration at 1 h in data set [2] (mouse, serum, 10 mg/kg, 60 min after 10 mg per Kg IP in sesame oil, corrected for volume (50 µl) and dilution (1:10)) was found to be 8400 ng/mL. Also, in data set [1], the “% Inhibition” value is 53%. In addition, in data set [1], the “% ^3H-Tritium bound” value was 20%.
Consider 22, 23-dihydroavermectin B₁ [Ivm], for which, in data set [1], the “% Inhibition” value came out at 63% and the “% ^3H-Tritium bound” value was 16%.
